Laboratory results taken from patent US4001327A, “Novel quaternary salts and method” (The Regents of the University of Michigan, priority 1973, dated 1977).

Tests used:
[1] = described by Lucchesi et al. 1968; undesirable side-effect of prior art compound; cited from earlier work
mongrel dogs [2] = experiment: Epicardial ST segment elevation (ΣST) after 10-minute coronary artery branch occlusion in anesthetized dogs; type: in vivo, dog; details: 10 mg./kg. intravenously 15 minutes prior to the second 10-minute occlusion; control ΣST 34.8 ± 4.9 mV
Procedure: A group of 10 mongrel dogs, weighing 11-19 kg., is anesthetized by the intravenous administration of 30 mg./kg. of pentobarbital sodium and breathing maintained by means of a Harvard respirator. A thoractomy is performed through the fifth left intercostal space; the heart is suspended in a pericardial cradle; a branch of the left anterior descending coronary artery is dissected free and a suture placed under that vessel. Occlusion of that arterial branch is accomplished by passing the free ends of the suture through a short section of polyethylene tubing and pressing the tubing against the vessel while exerting traction on the free ends of the suture. Termination of the occlusion is achieved by releasing the suture and pulling the tube away from the vessel.
The degree of myocardial ischemic injury resulting from occlusion of the artery is determined by the epicardial electrocardiographic method described by Maroko et al., Circulation, 43, 67-82 (1971). […] All surface collateral vessels are ligated and the unipolar electrograms from the six epicardial leads and the Lead II electrocardiogram are recorded on a Grass model 7 polygraph. […]
The reproducibility of the method with respect to the magnitude of ΣST is determined by successive 10-minute occlusions in a group of five dogs. […]

[3] = tested on: excised hearts perfused by donor dog; experiment: Oxygen consumption of excised hearts perfused with whole blood from a donor dog; type: in vivo; details: 10 mg./kg. intravenously to 5 donor dogs; value before treatment 3.1 ± 0.2; statistically significant (p<0.01) reduction
Procedure: In a separate assay, hearts are excised from anesthetized animals and perfused via the aorta at a constant pressure with oxygenated whole blood supplied by a donor dog connected to the heart. Oxygen consumption is calculated and expressed as ml./min./100 g. of the myocardium. The donor dogs are then treated intravenously with the selected dose of the test compound and the mean oxygen consumption value again calculated. The test compound is rated active if it effects a statistically significant reduction in that value.

mongrel dogs [4] = experiment: Myocardial oxygen consumption, left coronary arteries perfused with arterial blood at constant pressure, anesthetized dogs; type: in vivo, dog; details: 10 mg./kg. intravenously prior to perfusion; 5 dogs; mean control 11.7 ± 1.9; statistically significant (p<0.05) reduction
Procedure: A group of 5 mongrel dogs is anesthetized and thoractomized by the procedure described in the preceding assay and the left anterior descending and circumflex coronary arteries are cannulated and perfused with arterial blood at a constant pressure. Coronary arterial and venous blood samples are collected and their oxygen content measured. Myocardial oxygen consumption is calculated and expressed as ml./min./100 g. of the left ventricle. the mean control oxygen consumption in these 5 animals is 11.7 ± 1.9.
In a second group of 5 animals, prepared as described above, the selected dose of the test compound is administered intravenously prior to perfusion. The myocardial oxygen consumption is calculated and compared with the corresponding value in the control group. A compound is rated active if it effects a statistically significant reduction in the myocardial oxygen consumption observed in the control group.

SMILES	local anesthetic activity [1]	sum of the ST segment elevation in the six epicardial leads (ΣST) (mongrel dogs [2]) [mV]	mean oxygen consumption value [3]	myocardial oxygen consumption (mongrel dogs [4])
CC[N+](C)(CC)CC(O)COc1cccc2ccccc12 (stereo not shown) [1-(N,N-diethylamino)-3-(1-naphthoxy)propan-2-ol methiodide]	local anesthetic activity			
CC(C)[N+](C)(C)CC(O)COc1cccc2ccccc12 (stereo not shown) [1-(N-isopropyl-N-methylamino)-3-(1-naphthoxy)propan-2-ol methochloride]		11.3 ± 2.1	2.1 ± 0.1 ml./min./100 g. of the myocard	7.6 ± 1.1 ml./min./100 g. of the left ve
